Results reported in patent EP0330444A2, “Novel thiorhodamines and a novel method of preparation” (EASTMAN KODAK COMPANY (a New Jersey corporation), priority 1988, dated 1989).

Assays:
[1] = system: A549 Human Lung Carcinoma; assay: In vitro IC50, adhering monolayer culture, neutral red staining, inhibition of cell growth; type: cell-based; conditions: 3 hours drug exposure under red light, then about 7 days growth (four cell-doubling times), neutral red absorbence at 540 nm, read-out: IC₅₀ A549 Human Lung Carcinoma
From the text: (§1) The following is the procedure carried out in ascertaining the IC₅₀ concentrations of the thiorhodamines of this invention. (IC₅₀ is the in vitro molar concentration that inhibits 50% of tumor growth. The smaller the concentration, the higher the toxicity.):
(§2) For the IC₅₀ values for the human colon carcinoma and the human lung carcinoma lines, an adhering monolayer culture was used. Two days prior to plating, a number of cells obtained from the American Type Tissue Culture Collection was selected to grow as a stock, the number being that which would ensure the cells had not reached their plateau at the time of the in vitro test. On day 1 of the assay, asynchronous exponentially growing cells from this stock were suspended in a conventional complete medium comprising RPMI 1640 medium supplemented with 5% (v/v) fetal calf serum and 5% (v/v) NU serum obtained from Collaborative Research, and 20mM HEPES buffer, i.e., 4-(2-hydroxyethyl)-1-piperazineethanesulfonic acid. This was plated into a conventional 96-well tissue culture plate using a Cetus/Perkin Elmer automated pipetting device equipped with a dual supply manifold. The cells were then incubated for 48 hours at 37°C in a humidified atmosphere containing 5% CO₂. The cells were then incubated under red light for 3 hours in the presence of varying amounts of the compound of interest at 37°C in a humidified incubator containing 5% CO₂. Compounds were tested over a 6-log range of concentrations. After 3 hours the drug treated cells were then rinsed one time with complete medium as set forth above, and incubated in the complete medium the length of time appropriate to achieve four cell-doubling times (roughly 7 days for these cell lines). The medium was removed and the cells stained for 1-2 hours at 37°C with 0.1% (w/v) neutral red dye obtained from Eastman Kodak Co., dissolved in phosphate buffered saline (PBS) (without calcium or magnesium cations) at a pH of 6.85. The cells were rinsed twice with the same PBS and dried. Excess neutral red dye was eluted from each well with 50% (v/v) ethanol in 1% (v/v) glacial acetic acid. The absorbence of each well was quantitated using a Perkin-Elmer absorbence densitometer set at 540 nm. The % of inhibition of cell growth for a given concentration of compound was calculated using the equation: [formula] where At = absorbence of the cells treated with the candidate drug, Au = absorbence of the control treated with solvent only, and Ab = absorbence of the media and well only (background). […] The plotted data was then fitted to the curve for the function: F(x) = 100 - [100(X/A)^B/(1+(X/A)^B)] where x = the concentration of the test compound, A = the IC₅₀ value (50% inhibition on the plot) and B=the exponent of the fitted function. […]

[2] = system: CX-1 Human Colon Carcinoma; assay: as above; type: cell-based; conditions: 3 hours drug exposure under red light, then about 7 days growth (four cell-doubling times), neutral red absorbence at 540 nm, read-out: IC₅₀ CX-1 Human Colon Carcinoma
From the text: as §1, §2

Compound | IC50 [1] | IC50 [2]
COC(=O)c1ccccc1-c1c2ccc(N(C)C)cc2[s+]c2cc(N(C)C)ccc12 [Prep. 4, 3,6-bis(dimethylamino)-9-(2-methoxycarbonylphenyl)thioxanthylium chloride] | 810 nM | 810 nM
COC(=O)c1ccccc1-c1c2ccc(=N)cc-2oc2cc(N)ccc12 [Rhodamine 123] | > 12500 nM | > 12500 nM
